# Measured values taken from patent US7470707B2, “Crystalline monohydrate clopidogrel naphthalenedisulfonate and process of preparation” (Hanmi Pharm. Co., Ltd, priority 2004, dated 2008).
# Where a name gives a salt, the structure may show the parent alone. Read-outs that look alike come from different tables or passages of the source.
# Experiments:
# [1] = 60±2° C., 75±5% relative humidity
# Method: (§1) The assay of the acid addition salt of clopidogrel was measured using HPLC condition A, the amount of hydrolyzed impurities of the acid addition salt of clopidogrel was measured using HPLC condition B, the optical purity of the acid addition salt of clopidogrel (i.e., the amount of the levorotatory isomers) was measured using the HPLC condition C, and the water content of the acid addition salt of clopidogrel was measured with a Karl-Fisher titrator.
# [2] = system: platelet aggregation induced by adenosine-diphosphate (ADP); details: ADP (5 μM), PRP of female Sprague-Dawley rats after oral dose corresponding to clopidogrel 15.3 mg/kg
# Method: (§2) The pharmacological activities for preventing platelet aggregation of the clopidogrel hydrogen sulfate obtained in Comparative Example 1, and the inventive clopidogrel 2-naphthalenesulfonate and clopidogrel 1,5-naphthalenedisulfonate monohydrate obtained in Examples 1 and 2, respectively, were tested using rat blood in accordance with the standard method (see Born G.V.R & Cross, J. Physiol. 168: 178-195, 1963; 0. Takahashi, Food & Chemical Toxicology 38: 203-218, 2000). The platelet aggregation inhibition test was performed ex vivo, and the inhibitory activities of the acid addition salts against platelets aggregation induced by adenosine-diphosphate (ADP), collagen and thrombin, respectively, were measured.
# (§3) Twenty 11 to 12-weeks old female Sprague-Dawley rats (average weight: 270±25 g) were divided into four groups each consisting of five rats, and each group of rats was orally administered with 20.0 mg/kg of clopidogrel hydrogen sulfate (15.3 mg/kg as clopidogrel), 25.2 mg/kg of clopidogrel 2-naphthalenesulfonate, and 22.6 mg/kg of clopidogrel 1,5-naphthalenedisulfonate monohydrate dissolved in 1% DMSO based on a volume of 10 ml/kg body weight. For the control group of rats, only 1% DMSO solution was administered.
# (§4) Blood samples were taken using a syringe pre-charged with 3.8% citric acid solution from the abdominal artery of the animals under anesthesia, and the blood samples were centrifuged at 4° C. and 1,000 rpm for 10 minutes to separate platelet-rich plasma (PRP). The separated plasma was further centrifuged four times at 4° C. and 1,000 rpm to obtain PRP for test. A portion of PRP was further centrifuged at 4° C. and 3,000 rpm for 10 minutes to prepare precipitated platelet, and the precipitated platelet was washed with a buffer (138 mM NaCl, 2.7 mM KCl, 12 mM NaHCO3, 0.36 mM NaH2PO4, 5.5 mM glucose, 1 mM EDTA: pH 6.5). Then, the platelet was suspended in a buffer (138 mM NaCl, 2.7 mM KCl, 12 mM NaHCO3, 0.36 mM NaH2PO4, 0.49 mM MgCl2, 0.25% gelatin, 5.5 mM glucose: pH 7.4) such that the optical density (OD) value at 260 nm corresponded to a number of platelet which is about 1×10^8.
# (§5) To induce platelet aggregation, ADP standard solution was added to the above PRP to determine the concentration until the final concentration of the ADP became 5 μM. Further, a collagen standard solution (final concentration 5 μg/ml) and thrombin standard solution (final concentration 0.1 U/ml) was added to the above washing platelet solution to induce platelet aggregation. Each of the samples was stirred at 37° C. and 900 rpm to measure the amount of platelet aggregation using a aggregometer (Chrono-log Platelet Aggregometer). The degrees of platelet aggregation and inhibition were calculated using formulae 1 and 2, and the results are shown in Table 8. Degree of aggregation (%)=[(measured aggregation height)/(aggregation height when 100% was aggregated)]×100 <Formula 1> Degree of inhibition (%)=[(aggregation height of control group)−(aggregation height of drug administration group)]/(aggregation height of control group)×100 <Formula 2>
# [3] = system: platelet aggregation induced by collagen; details: Collagen (5 μg/ml), washed platelets of female Sprague-Dawley rats after oral dose corresponding to clopidogrel 15.3 mg/kg
# Method: as §2, §3, §4, §5
# [4] = system: platelet aggregation induced by thrombin; details: Thrombin (0.1 U/ml), washed platelets of female Sprague-Dawley rats after oral dose corresponding to clopidogrel 15.3 mg/kg
# Method: as §2, §3, §4, §5
# [5] = 60±2° C., 75±5% RH; for Relative amount compared to the initial amount: HPLC condition A; for Amount of hydrolyzed impurities (formula (III)) of an acid addition salt of clopidogrel: HPLC condition B; for Amount of levorotatory isomers (formula (IV)) of an acid addition salt of clopidogrel: HPLC condition C
# Method: Condition A: For the measurement of an assay of an acid addition salt of clopidogrel
# • Column: Kromasil C18, 5 μm (250 mm×4.6 mm) • Detector: 220 nm • Flow rate: 1.5 ml/minute • Mobile phase: Na2HPO4—NaH2PO4 buffer solution: THF: CH3CN=5:2:3 (v/v) Condition B: For the measurement of an amount of hydrolyzed impurities of an acid addition salt of clopidogrel • Column: Capcellpak C18 MG, 5 μm (250 mm×4.6 mm) • Detector: 210 nm • Flow rate: 1.0 ml/min. • Mobile phase: KH2PO4 buffer solution/CH3CN (70/30): KH2PO4 buffer solution/CH3CN (30/70)=0:100 100:0 (v/v, gradient elution) Condition C: For the measurement of an optical purity of an acid addition salt of clopidogrel • Column: Chiralpak AD, 5 μm (250 mm×4.6 mm) • Detector: 210 nm • Flow rate: 1.0 ml/min. • Mobile phase: n-hexane: isopropanol=90:10 (v/v)
# as §1
compound,measurement,setting,value
"COC(=O)[C@H](c1ccccc1Cl)N1CCc2sccc2C1 [1,5-Naphthalenedisulfonate monohydrate, Clopidogrel 1,5-naphthalenedisulfonate Monohydrate]",Water content,"[1]; 0 day, Monohydrate",1.8%
same,Water content,"[1]; 7 days, Monohydrate",1.8%
same,Water content,"[1]; 14 days, Monohydrate",1.9%
same,Water content,"[1]; 21 days, Monohydrate",1.9%
same,Water content,"[1]; 28 days, Monohydrate",1.8%
same,Water content,"[1]; 35 days, Monohydrate",1.9%
same,Aggregation ratio,[2]; Monohydrate,4.12 ± 0.14%
same,Inhibition ratio,[2]; Monohydrate,88.5%
same,Aggregation ratio,[3]; Monohydrate,3.75 ± 0.40%
same,Inhibition ratio,[3]; Monohydrate,95.3%
same,Aggregation ratio,[4]; Monohydrate,23.61 ± 1.43%
same,Inhibition ratio,[4]; Monohydrate,71.5%
same,Relative amount compared to the initial amount,[5]; 0 day,100%
same,Amount of hydrolyzed impurities (formula (III)) of an acid addition salt of clopidogrel,[5]; 0 day,0.0%
same,Amount of levorotatory isomers (formula (IV)) of an acid addition salt of clopidogrel,"[5]; 0 day, Monohydrate",0.10%
same,Relative amount compared to the initial amount,"[5]; 7 days, Monohydrate",100%
same,Amount of levorotatory isomers (formula (IV)) of an acid addition salt of clopidogrel,"[5]; 7 days, Monohydrate",0.10%
same,Relative amount compared to the initial amount,"[5]; 14 days, Monohydrate",100%
same,Amount of hydrolyzed impurities (formula (III)) of an acid addition salt of clopidogrel,"[5]; 14 days, Monohydrate",0.02%
same,Amount of levorotatory isomers (formula (IV)) of an acid addition salt of clopidogrel,"[5]; 14 days, Monohydrate",0.10%
same,Relative amount compared to the initial amount,"[5]; 21 days, Monohydrate",100%
same,Amount of levorotatory isomers (formula (IV)) of an acid addition salt of clopidogrel,"[5]; 21 days, Monohydrate",0.09%
same,Relative amount compared to the initial amount,"[5]; 28 days, Monohydrate",99.9%
same,Amount of hydrolyzed impurities (formula (III)) of an acid addition salt of clopidogrel,"[5]; 28 days, Monohydrate",0.04%
same,Amount of levorotatory isomers (formula (IV)) of an acid addition salt of clopidogrel,"[5]; 28 days, Monohydrate",0.11%
same,Relative amount compared to the initial amount,"[5]; 35 days, Monohydrate",99.9%
same,Amount of hydrolyzed impurities (formula (III)) of an acid addition salt of clopidogrel,"[5]; 35 days, Monohydrate",0.05%
same,Amount of levorotatory isomers (formula (IV)) of an acid addition salt of clopidogrel,"[5]; 35 days, Monohydrate",0.10%
"COC(=O)[C@H](c1ccccc1Cl)N1CCc2sccc2C1 [2-Naphthalenesulfonate, Clopidogrel 2-naphthalenesulfonate]",Water content,[1]; 0 day,0.1%
same,Water content,[1]; 7 days,0.1%
same,Water content,[1]; 14 days,0.1%
same,Water content,[1]; 21 days,0.1%
same,Water content,[1]; 28 days,0.1%
same,Water content,[1]; 35 days,0.1%
same,Aggregation ratio,[2],2.94 ± 0.21%
same,Inhibition ratio,[2],91.8%
same,Aggregation ratio,[3],1.88 ± 0.25%
same,Inhibition ratio,[3],97.9%
same,Aggregation ratio,[4],15.00 ± 1.71%
same,Inhibition ratio,[4],81.9%
same,Relative amount compared to the initial amount,[5]; 0 day,100%
same,Amount of hydrolyzed impurities (formula (III)) of an acid addition salt of clopidogrel,[5]; 0 day,0.0%
same,Amount of levorotatory isomers (formula (IV)) of an acid addition salt of clopidogrel,[5]; 0 day,0.10%
same,Relative amount compared to the initial amount,[5]; 7 days,99.1%
same,Amount of levorotatory isomers (formula (IV)) of an acid addition salt of clopidogrel,[5]; 7 days,0.10%
same,Relative amount compared to the initial amount,[5]; 14 days,99.3%
same,Amount of hydrolyzed impurities (formula (III)) of an acid addition salt of clopidogrel,[5]; 14 days,0.12%
same,Amount of levorotatory isomers (formula (IV)) of an acid addition salt of clopidogrel,[5]; 14 days,0.10%
same,Relative amount compared to the initial amount,[5]; 21 days,99.1%
same,Amount of levorotatory isomers (formula (IV)) of an acid addition salt of clopidogrel,[5]; 21 days,0.10%
same,Relative amount compared to the initial amount,[5]; 28 days,99.0%
same,Amount of hydrolyzed impurities (formula (III)) of an acid addition salt of clopidogrel,[5]; 28 days,0.16%
same,Amount of levorotatory isomers (formula (IV)) of an acid addition salt of clopidogrel,[5]; 28 days,0.11%
same,Relative amount compared to the initial amount,[5]; 35 days,99.2%
same,Amount of hydrolyzed impurities (formula (III)) of an acid addition salt of clopidogrel,[5]; 35 days,0.18%
same,Amount of levorotatory isomers (formula (IV)) of an acid addition salt of clopidogrel,[5]; 35 days,0.13%
"COC(=O)[C@H](c1ccccc1Cl)N1CCc2sccc2C1 [Hydrogen sulfate, Clopidogrel Hydrogen Sulfate, reference compound]",Water content,[1]; 0 day,0.1%
same,Water content,[1]; 7 days,0.1%
same,Water content,[1]; 14 days,0.1%
same,Water content,[1]; 21 days,0.4%
same,Water content,[1]; 28 days,2.0%
same,Water content,[1]; 35 days,4.8%
same,Aggregation ratio,[2],5.00 ± 0.60%
same,Inhibition ratio,[2],86.1%
same,Aggregation ratio,[3],12.19 ± 1.70%
same,Inhibition ratio,[3],84.8%
same,Aggregation ratio,[4],27.22 ± 1.52%
same,Inhibition ratio,[4],67.1%
same,Relative amount compared to the initial amount,[5]; 0 day,100%
same,Amount of hydrolyzed impurities (formula (III)) of an acid addition salt of clopidogrel,[5]; 0 day,0.0%
same,Amount of levorotatory isomers (formula (IV)) of an acid addition salt of clopidogrel,[5]; 0 day,0.35%
same,Relative amount compared to the initial amount,[5]; 7 days,99.6%
same,Amount of levorotatory isomers (formula (IV)) of an acid addition salt of clopidogrel,[5]; 7 days,0.35%
same,Relative amount compared to the initial amount,[5]; 14 days,98.7%
same,Amount of hydrolyzed impurities (formula (III)) of an acid addition salt of clopidogrel,[5]; 14 days,0.63%
same,Amount of levorotatory isomers (formula (IV)) of an acid addition salt of clopidogrel,[5]; 14 days,0.40%
same,Relative amount compared to the initial amount,[5]; 21 days,97.7%
same,Amount of levorotatory isomers (formula (IV)) of an acid addition salt of clopidogrel,[5]; 21 days,0.49%
same,Relative amount compared to the initial amount,[5]; 28 days,94.4%
same,Amount of hydrolyzed impurities (formula (III)) of an acid addition salt of clopidogrel,[5]; 28 days,2.0%
same,Amount of levorotatory isomers (formula (IV)) of an acid addition salt of clopidogrel,[5]; 28 days,0.67%
same,Relative amount compared to the initial amount,[5]; 35 days,87.0%
same,Amount of hydrolyzed impurities (formula (III)) of an acid addition salt of clopidogrel,[5]; 35 days,4.8%
same,Amount of levorotatory isomers (formula (IV)) of an acid addition salt of clopidogrel,[5]; 35 days,1.08%
